# Test results: patent publication US6949516B2, “Dipeptide apoptosis inhibitors and the use thereof” (Cytovia, Inc., priority 1997, dated 2005)
# pIC50: −log10 of the molar value.
# What was measured:
# HeLa cells = assay: Cell death assay with HeLa cells, qualitative (phase contrast microscopy), TNF-α/CHX challenge; type: cell-based; conditions: for cytoprotection of HeLa cells from apoptotic effects of TNF-α and CHX (microscopy): 24 hour incubation
# Description: The cytoprotective properties of Cbz-Val-Asp(OMe)CH2F were tested using HeLa cells challenged with tumor necrosis factor-alpha (TNF-α) and cycloheximide (CHX). This is a well-characterized cell culture model of apoptosis which is commonly used to analyze anti-apoptotic agents. Two types of experiments were performed: a qualitative assessment of cell death by visualization of the cells using phase contrast microscopy; and a quantitative assessment of cell death using the fluorescent dye calcein AM.
# For photomicroscopy, HeLa cells are seeded in 12-well multidishes at a density of 100,000 cells per well in Minimal Essential Medium containing 2 mM glutamine and 10% fetal bovine serum. 24 hours later the plating medium is removed and fresh medium is added containing the cytoprotective test compound at various concentrations. The cells are pre-incubated with test compound for 2 hours at 37° C. in a CO2 incubator and then TNF-α and CHX are added at final concentrations of 25 ng/mL and 30 μg/mL, respectively. After a 24 hour incubation period, the cells are examined visually for evidence of cell death based on cell shape and degree of adherence. Cells are considered dead if they have become rounded up and phase bright and have detached from the substratum. Cells are considered alive if they have retained their normal morphology and remain attached to the substratum.
# All of these compounds are the methyl ester derivatives. […] At 50 μM, the related peptides BOC-Asp(OMe)-CH2F (FIG. 1C) and Cbz-Glu(OMe)-Val-Asp(OMe)-CH2F (FIG. 1E) are also protective.
# [1] = system: PARP cleavage in Jurkat cells; assay: Effect of Z-VD-fmk on PARP cleavage in antiFas-treated Jurkat cells (Example 24); type: cell-based, human
# Description: Poly(ADP)ribose polymerase (PARP) was one of the first caspase-3 substrates identified and the cleavage of PARP is still considered to be a near-universal marker for caspase-3 activation and caspase-mediated apoptosis. The ability of an anti-apoptotic compound to block PARP cleavage is therefore a useful indicator of its ability to inhibit apoptosis. The potency of Z-VD-fmk in a PARP cleavage assay was tested using antiFas-treated Jurkat cells. 2×10^6 Jurkat cells were seeded in each well of a 6-well dish and pre-incubated with test compounds for 30 minutes. The cells were then challenged with 500 ng/mL of an agonistic antiFas antibody or PBS for 4 hours. The cells were then harvested, pelleted gently, washed two times with PBS and lysed in RIPA buffer. Aliquots of the lysate were analyzed by SDS-PAGE and the proteins were transferred to PVDF membranes for Western blotting. The primary antibody was a polyclonal antiPARP serum which cross-reacts with both full-length PARP and the caspase-3-generated cleavage product.
# [2] = system: mouse liver apoptosis model; assay: Mouse liver apoptosis model (antiFas-induced lethality); type: in vivo; conditions: mice
# Description: The in vivo activity of the cell death inhibitors of the invention can be tested using the “mouse liver apoptosis” model described by Rodriguez et al. (Rodriguez et al., J. Exp. Med., 184:2067-2072 (1996)). In this model, mice are treated intravenously (IV) with an antiFas antibody which induces massive apoptosis in the liver and other organs, leading to generalized organ failure and death. This model is useful for indirectly testing the systemic bioavailability of the cell death inhibitors of the invention, as well as their in vivo anti-apoptotic properties. The cell death inhibitors of the invention therefore can be used to reduce or prevent apoptosis of liver cells (Jones et al. Hepatology 27: 1632-42 (1998)) such as in sepsis (Jaeschke et al. J. Immunol. 160: 3480-3486 (1998)) and hereditary tyrosinemia type 1 (HT1) (Kubo et al. Prov. Natl. Acad Sci. USA, 95: 9552-9557 (1998). The cell death inhibitors of the invention also can be used to treat hepatitis (Suzuki, Proc. Soc. Exp. Biol. Med. 217: 450-454 (1998)).
# Three to four week old female mice were used in the studies. Liver degeneration was induced by intravenous injection with 2-6 μg of a purified hamster anti-mouse Fas monoclonal antibody (clone Jo2, Pharmingen) against mouse Fas antigen diluted in 80 μl of phosphate buffered physiological saline (Rodriguez, et al., 1996). Mortality was used as the end point to assess liver degeneration. Cbz-Val-Asp-CH2F was formulated in Tris buffer for intravenous infusion and tested at a dose of 1-10 mg/kg given IV via the tail vein. Ten minutes later, animals were injected with Fas antibody. Mortality was counted at 30 mins, 1, 3 and 24 h. For each compound there were groups of control animals that receive Fas antibody only.
Structure (SMILES),cytoprotection of HeLa cells from apoptotic effects of TNF-α and CHX (microscopy) (HeLa cells; 0.5 μM),cytoprotection of HeLa cells from apoptotic effects of TNF-α and CHX (microscopy) (HeLa cells; 5 μM),cytoprotection of HeLa cells from apoptotic effects of TNF-α and CHX (microscopy) (HeLa cells; 50 μM),"protective concentration, fold lower than other putative anti-apoptotic agents (HeLa cells; HeLa cells, TNF-α/CHX-induced apoptosis) [fold]","inhibition of PARP cleavage ([1]; 50 nM, antiFas-treated Jurkat cells)","inhibition of PARP cleavage ([1]; 250 nM, antiFas-treated Jurkat cells)","inhibition of PARP cleavage ([1]; 500 nM, antiFas-treated Jurkat cells)","potency as inhibitor of PARP cleavage in intact cells, fold relative to Z-VAD-fmk ([1]; Jurkat cells)","pIC50 ([1]; antiFas-treated Jurkat cells, read-out: IC50, inhibition of PARP cleavage (whole-cell apoptosis model))","induction of the liver enzymes SPGT and SGOT ([2]; antiFas, separate studies)","protection from antiFas-induced lethality ([2]; single 1 mg/kg IV dose, up to 1 h after antibody administration)",survival ([2]; up to 24 h after antiFas) [%]
"COC(=O)CC(NC(=O)C(NC(=O)OCc1ccccc1)C(C)C)C(=O)CF (stereo not drawn) [Cbz-Val-Asp(OMe)-CH2F, Z-Val-Asp-fmk Methyl Ester]",still an effective cytoprotectant,surprisingly strong cytoprotective action,completely protects,10 to 100,,,,,,,,
"CC(C)[C@H](NC(=O)OCc1ccccc1)C(=O)NC(CC(=O)O)C(=O)CF (stereo partly drawn) [Cbz-Val-Asp-CH2F, Z-Val-Asp-fmk]",,,,,still retains much of its inhibitory activity,completely inhibits,completely inhibits,at least 10 fold,> 7.30,attenuation,completely protected,28
